# Assay results: US8278469B2, “17-hydroxy-17-pentafluoroethyl-estra-4,9(10)-dien-11-aryl derivatives, method of production thereof and use thereof for the treatment of diseases” (Bayer Pharma Aktiengesellschaft, priority 2009, dated 2012)
# How the values were obtained:
# [1] = Metabolic stability in human liver microsomes (HLM); format: in vitro ADME; conditions: HLM 0.5 mg/ml protein, 1 μM, 37° C., pH 7.4; well-stirred model, phase I reactions
# Experimental: Metabolic Stability of (11β,17β)-17-hydroxy-11-[4-(methylsulphonyl)phenyl]-17-(pentafluoroethyl)estra-4,9-dien-3-one and (11β,17β)-17-hydroxy-11-[4′-(methylsulphonyl)-biphenyl-4-4-yl]-17-(pentafluoroethyl)estra-4,9-dien-3-one in Human Liver Microsomes (HLM)
# Isolated human liver microsomes (HLM) were used for assessing the metabolic stability of compounds of general formula I.
# Incubations were carried out with 2.4 ml of HLM solution (0.5 mg/ml protein content), 30 μl of the test compound (final concentration 1 μM) and 0.6 ml of the cofactor mixture (=NADPH-generating system of 3 IU glucose-6-phosphate dehydrogenase, 14.6 mg glucose-6-phosphate, 1.2 mg NADP) at 37° C. in 100 mM phosphate buffer at pH 7.4. Samples are taken at 6 time points (2-60 min), precipitated with an equal volume of methanol and the recovery of the test substances used in the supernatant is determined by LC-MS/MS analysis. The intrinsic clearance of the substance in the liver microsome preparation can be calculated from the half-life found for the breakdown of the substance. Based on this, together with various physiological characteristics according to the well-stirred model, it is then possible to predict a (metabolic) in vivo clearance with respect to phase I reactions. […]
# [2] = Chemical stability against temperature, light and oxidative stress; format: physicochemical; conditions: compared with the analogue with an alkanoyl or hydroxyalkanoyl group
# [3] = target: T1, human progesterone receptor B (PR-B) (Homo sapiens, UniProt P06401); test: Progesterone receptor-antagonistic action in stable transfectants of SK-N-MC cells with human PR-B and MTV-LUC reporter; format: cell-based; conditions: SK-N-MC, 24 h, read-out: Progesterone receptor B (PR-B) Efficacy
# T1 construct: expressed in transfected cells; host or cells: SK-N-MC human neuroblastoma cells, stably transfected with pRChPR-B-neo and pMMTV-LUC
# T1 sequence (P06401 1-933): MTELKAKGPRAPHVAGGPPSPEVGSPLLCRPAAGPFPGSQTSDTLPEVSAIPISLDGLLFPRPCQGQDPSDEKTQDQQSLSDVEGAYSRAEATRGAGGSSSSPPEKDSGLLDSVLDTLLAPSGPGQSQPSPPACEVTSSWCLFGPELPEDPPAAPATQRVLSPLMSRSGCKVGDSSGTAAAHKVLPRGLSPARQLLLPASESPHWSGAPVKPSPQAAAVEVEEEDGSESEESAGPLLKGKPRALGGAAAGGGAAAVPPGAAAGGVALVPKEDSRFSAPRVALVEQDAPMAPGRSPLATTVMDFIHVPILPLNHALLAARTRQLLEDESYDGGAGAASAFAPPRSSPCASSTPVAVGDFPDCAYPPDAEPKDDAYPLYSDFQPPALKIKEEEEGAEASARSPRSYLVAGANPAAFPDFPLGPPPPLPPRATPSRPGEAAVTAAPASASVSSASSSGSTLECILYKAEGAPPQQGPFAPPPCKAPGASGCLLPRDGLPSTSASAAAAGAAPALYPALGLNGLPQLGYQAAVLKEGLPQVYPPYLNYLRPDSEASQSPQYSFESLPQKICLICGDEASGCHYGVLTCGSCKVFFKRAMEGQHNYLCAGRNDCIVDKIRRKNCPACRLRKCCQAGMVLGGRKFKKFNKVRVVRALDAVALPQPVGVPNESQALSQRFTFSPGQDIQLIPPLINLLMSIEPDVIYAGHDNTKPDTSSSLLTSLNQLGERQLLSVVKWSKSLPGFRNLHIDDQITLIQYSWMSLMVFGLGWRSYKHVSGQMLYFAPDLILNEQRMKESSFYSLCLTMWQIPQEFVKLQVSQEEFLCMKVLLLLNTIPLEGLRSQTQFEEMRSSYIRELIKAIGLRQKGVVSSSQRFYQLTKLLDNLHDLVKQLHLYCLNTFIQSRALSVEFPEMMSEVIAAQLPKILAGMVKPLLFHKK
# Experimental: Progesterone Receptor-Antagonistic Action in Stable Transfectants of Human Neuroblastoma Cells (SK-N-MC Cells) with the Human Progesterone A or Progesterone B Receptor and an MTV-LUC Reporter Construct
# SK-N-MC cells (human neuroblastoma cells), which have been stably transfected with plasmids, which express the human progesterone receptor B (pRChPR-B-neo) or the human progesterone receptor A (pRChPR-A-neo) and a reporter construct (pMMTV-LUC), were incubated for 24 hours either in the absence (negative control) or in the presence of increasing amounts of the respective test compound (0.01 nmol/l, 0.1 nmol/l, 1 nmol/l, 10 nmol/l, 100 nmol/l and 1 μmol/l), in order to determine the agonistic efficacy. As positive control of reporter gene induction, the cells were treated with the synthetic gestagen promegestone (0.01 nmol/l, 0.1 nmol/l, 1 nmol/l, 10 nmol/l, 100 nmol/l and 1 μmol/l). For determination of the antagonistic activity, the cells were treated with 0.1 nmol/l promegestone and additionally with increasing amounts of the respective test compound (0.01 nmol/l, 0.1 nmol/l, 1 nmol/l, 10 nmol/l, 100 nmol/l and 1 μmol/l). The activity of the LUC reporter gene (LUC=luciferase) was determined in the cell lysates and was measured as RLU (relative light units). All measured values are given as percentage efficacy and as EC50 or IC50 concentrations.
# 11β-(4-Acetylphenyl)-20,20,21,21,21-pentafluoro-17-hydroxy-19-nor-17α-pregna-4,9-dien-3-one and 20,20,21,21,21-pentafluoro-17-hydroxy-11β-[4-(hydroxyacetyl)phenyl]-19-nor-17α-pregna-4,9-dien-3-one, very potent and therefore preferred examples from WO98/34947 and WO2008/058767, were tested as comparative compounds along with the test compound.
smiles,measurement,setting,value
"C[C@]12C[C@H](c3ccc(S(C)(=O)=O)cc3)C3=C4CCC(=O)C=C4CC[C@H]3[C@@H]1CC[C@@]2(O)C(F)(F)C(F)(F)F [Example 4, (11β,17β)-17-Hydroxy-11-[4-(methylsulphonyl)phenyl]-17-(pentafluoroethyl)estra-4,9-dien-3-one]",(metabolic) in vivo clearance in humans predicted,[1],0.1 L/h/kg
same,Oxidation sensitivity,[2],surprisingly low oxidation sensitivity
same,Stability under the influence of UV light,[2],surprisingly high stability
same,Stability under thermal load,[2],surprisingly high stability
same,Emax,[3],100%
